Patent publication US20210045385A1, “PYRIDAZINONE-SUBSTITUTED KETOXIMES AS HERBICIDES” (FMC Corporation, priority 2018, published 2021)

Tests used:
Type in all cases: in vivo
[1] = system: foxtail, green (green foxtail, Setaria viridis); test: Test A preemergence, visual plant response rating; details: approx. 10 days
How it was run: (§1)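 Ratings use a 0–100 visual scale (100 = complete control) against untreated controls, scored about 10 days after greenhouse treatment. Test chemicals were formulated in surfactant-containing non-phytotoxic solvent and applied either as soil spray after planting (preemergence) or onto one- to two-leaf, 2–10 cm plants (postemergence).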

[2] = system: pigweed (Amaranthus retroflexus); test: Test A preemergence, visual plant response rating; details: approx. 10 days
How it was run: as §1

[3] = system: barnyardgrass (Echinochloa crus-galli); test: Test A preemergence, visual plant response rating; details: approx. 10 days
How it was run: as §1

[4] = system: ragweed (common ragweed, Ambrosia elatior); test: Test A preemergence, visual plant response rating; details: approx. 10 days
How it was run: as §1

kochia (Kochia scoparia) [5] = test: Test A preemergence, visual plant response rating; details: approx. 10 days
How it was run: as §1

[6] = system: Italian ryegrass (Lolium multiflorum); test: Test A preemergence, visual plant response rating; details: approx. 10 days
How it was run: as §1

[7] = system: sedge, umbrella (small-flower umbrella sedge, Cyperus difformis); test: Test B flooded paddy test, visual plant response rating; details: 250 g ai/ha, Flood, applied to paddy water, 2-leaf stage, evaluated after 13 to 15 days
How it was run: (§2)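 At the two-leaf stage, seedlings received compound applied to paddy water flooded 3 cm above soil, a level sustained until assessment. Greenhouse incubation lasted 13 to 15 days before visual comparison with control plants.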

[8] = system: ducksalad (Heteranhera limosa); test: as above; details: 250 g ai/ha, Flood, applied to paddy water, 2-leaf stage, evaluated after 13 to 15 days
How it was run: as §2

[9] = system: barnyardgrass (Echinochloa crus-galli); test: as above; details: 250 g ai/ha, Flood, applied to paddy water, 2-leaf stage, evaluated after 13 to 15 days
How it was run: as §2

rice (Oryza sativa) = test: as above; details: 250 g ai/ha, Flood, applied to paddy water, 2-leaf stage, evaluated after 13 to 15 days
How it was run: as §2

[10] = system: foxtail, green (green foxtail, Setaria viridis); test: Test A postemergence, visual plant response rating; details: for Foxtail, Green plant response rating (0 to 100 scale): 500 g ai/ha, postemergence, 0 is no effect, 100 is complete control; for Foxtail, Green plant response rating: Postemergence, 125 g ai/ha, 0 to 100 scale (0 no effect, 100 complete control)
How it was run: as §1

[11] = system: wheat (Triticum aestivum); test: Test A postemergence, visual plant response rating; details: for Wheat plant response rating (0 to 100 scale): 500 g ai/ha, postemergence, 0 is no effect, 100 is complete control; for Wheat plant response rating: Postemergence, 125 g ai/ha, 0 to 100 scale (0 no effect, 100 complete control)
How it was run: as §1

[12] = system: blackgrass (Alopecurus myosuroides); test: Test A postemergence, visual plant response rating; details: for Blackgrass plant response rating (0 to 100 scale): 500 g ai/ha, postemergence, 0 is no effect, 100 is complete control; for Blackgrass plant response rating: Postemergence, 125 g ai/ha, 0 to 100 scale (0 no effect, 100 complete control)
How it was run: as §1

[13] = system: pigweed (Amaranthus retroflexus); test: Test A postemergence, visual plant response rating; details: for Pigweed plant response rating (0 to 100 scale): 500 g ai/ha, postemergence, 0 is no effect, 100 is complete control; for Pigweed plant response rating: Postemergence, 125 g ai/ha, 0 to 100 scale (0 no effect, 100 complete control)
How it was run: as §1

corn (Zea mays) = test: Test A postemergence, visual plant response rating; details: for Corn plant response rating (0 to 100 scale): 500 g ai/ha, postemergence, 0 is no effect, 100 is complete control; for Corn plant response rating: Postemergence, 125 g ai/ha, 0 to 100 scale (0 no effect, 100 complete control)
How it was run: as §1

[14] = system: barnyardgrass (Echinochloa crus-galli); test: Test A postemergence, visual plant response rating; details: for Barnyardgrass plant response rating (0 to 100 scale): 500 g ai/ha, postemergence, 0 is no effect, 100 is complete control; for Barnyardgrass plant response rating: Postemergence, 125 g ai/ha, 0 to 100 scale (0 no effect, 100 complete control)
How it was run: as §1

[15] = system: ragweed (common ragweed, Ambrosia elatior); test: Test A postemergence, visual plant response rating; details: for Ragweed plant response rating (0 to 100 scale): 500 g ai/ha, postemergence, 0 is no effect, 100 is complete control; for Ragweed plant response rating: Postemergence, 125 g ai/ha, 0 to 100 scale (0 no effect, 100 complete control)
How it was run: as §1

kochia (Kochia scoparia) [16] = test: Test A postemergence, visual plant response rating; details: for Kochia plant response rating (0 to 100 scale): 500 g ai/ha, postemergence, 0 is no effect, 100 is complete control; for Kochia plant response rating: Postemergence, 125 g ai/ha, 0 to 100 scale (0 no effect, 100 complete control)
How it was run: as §1

[17] = system: Italian ryegrass (Lolium multiflorum); test: Test A postemergence, visual plant response rating; details: for Ryegrass, Italian plant response rating (0 to 100 scale): 500 g ai/ha, postemergence, 0 is no effect, 100 is complete control; for Ryegrass, Italian plant response rating: Postemergence, 125 g ai/ha, 0 to 100 scale (0 no effect, 100 complete control)
How it was run: as §1

[18] = system: galium (catchweed bedstraw, Galium aparine); test: Test A postemergence, visual plant response rating; details: for Galium plant response rating (0 to 100 scale): 500 g ai/ha, postemergence, 0 is no effect, 100 is complete control; for Galium plant response rating: Postemergence, 125 g ai/ha, 0 to 100 scale (0 no effect, 100 complete control)
How it was run: as §1

SMILES | Foxtail, Green plant response rating (0 to 100 scale) ([1]; 125 g ai/ha Preemergence) | Foxtail, Green plant response rating (0 to 100 scale) ([1]; 500 g ai/ha Preemergence) | Pigweed plant response rating (0 to 100 scale) ([2]; 125 g ai/ha Preemergence) | Pigweed plant response rating (0 to 100 scale) ([2]; 500 g ai/ha Preemergence) | Barnyardgrass plant response rating (0 to 100 scale) ([3]; 125 g ai/ha Preemergence) | Barnyardgrass plant response rating (0 to 100 scale) ([3]; 500 g ai/ha Preemergence) | Ragweed plant response rating (0 to 100 scale) ([4]; 125 g ai/ha Preemergence) | Ragweed plant response rating (0 to 100 scale) ([4]; 500 g ai/ha Preemergence) | Kochia plant response rating (0 to 100 scale) (kochia (Kochia scoparia) [5]; 125 g ai/ha Preemergence) | Kochia plant response rating (0 to 100 scale) (kochia (Kochia scoparia) [5]; 500 g ai/ha Preemergence) | Ryegrass, Italian plant response rating (0 to 100 scale) ([6]; 125 g ai/ha Preemergence) | Ryegrass, Italian plant response rating (0 to 100 scale) ([6]; 500 g ai/ha Preemergence) | Plant response rating, Sedge, Umbrella (0 to 100 scale, 0 is no effect, 100 is complete control) [7] | Plant response rating, Ducksalad (0 to 100 scale, 0 is no effect, 100 is complete control) [8] | Plant response rating, Barnyardgrass (0 to 100 scale, 0 is no effect, 100 is complete control) [9] | Plant response rating, Rice (0 to 100 scale, 0 is no effect, 100 is complete control) (rice (Oryza sativa)) | Foxtail, Green plant response rating (0 to 100 scale) [10] | Foxtail, Green plant response rating [10] | Wheat plant response rating (0 to 100 scale) [11] | Wheat plant response rating [11] | further results
Cc1cccc(/C(=N\O)c2c(O)c(C)nn(C)c2=O)c1 [Compound 21] | 0 | 0 | 0 | 0 | 0 | 0 | 0 | 0 | 0 | 0 | 0 | 0 | 0 | 0 | 0 | 0 | 0 | 0 | 0 | 0 | Blackgrass plant response rating (0 to 100 scale) [12]: 0; Blackgrass plant response rating [12]: 0; Pigweed plant response rating (0 to 100 scale) [13]: 60; Pigweed plant response rating [13]: 0; Corn plant response rating (0 to 100 scale) (corn (Zea mays)): 0; Corn plant response rating (corn (Zea mays)): 0; Barnyardgrass plant response rating (0 to 100 scale) [14]: 0; Barnyardgrass plant response rating [14]: 0; Ragweed plant response rating (0 to 100 scale) [15]: 20; Ragweed plant response rating [15]: 0; Kochia plant response rating (0 to 100 scale) (kochia (Kochia scoparia) [16]): 10; Kochia plant response rating (kochia (Kochia scoparia) [16]): 0; Ryegrass, Italian plant response rating (0 to 100 scale) [17]: 20; Ryegrass, Italian plant response rating [17]: 0; Galium plant response rating (0 to 100 scale) [18]: 80; Galium plant response rating [18]: 0
CO/N=C(\c1cccc(C)c1C)c1c(O)c(C)nn(C)c1=O [Compound 22] | 0 | 0 | 30 | 90 | 0 | 0 | 50 | 90 | 10 | 10 | 10 | 30 | 0 | 0 | 0 | 0 | 0 | 0 | 0 | 0 | Blackgrass plant response rating (0 to 100 scale) [12]: 40; Blackgrass plant response rating [12]: 10; Pigweed plant response rating (0 to 100 scale) [13]: 50; Pigweed plant response rating [13]: 30; Corn plant response rating (0 to 100 scale) (corn (Zea mays)): 0; Corn plant response rating (corn (Zea mays)): 0; Barnyardgrass plant response rating (0 to 100 scale) [14]: 10; Barnyardgrass plant response rating [14]: 0; Ragweed plant response rating (0 to 100 scale) [15]: 50; Ragweed plant response rating [15]: 40; Kochia plant response rating (0 to 100 scale) (kochia (Kochia scoparia) [16]): 30; Kochia plant response rating (kochia (Kochia scoparia) [16]): 20; Ryegrass, Italian plant response rating (0 to 100 scale) [17]: 30; Ryegrass, Italian plant response rating [17]: 10; Galium plant response rating (0 to 100 scale) [18]: 60; Galium plant response rating [18]: 60
CO/N=C(/c1cccc(C)c1C)c1c(O)c(C)nn(C)c1=O [Compound 23] | 0 | 50 | 30 | 80 | 0 | 20 | 60 | 90 | 0 | 20 | 40 | 90 | 0 | 0 | 0 | 0 | 0 | 0 | 0 | 0 | Blackgrass plant response rating (0 to 100 scale) [12]: 50; Blackgrass plant response rating [12]: 20; Pigweed plant response rating (0 to 100 scale) [13]: 80; Pigweed plant response rating [13]: 20; Corn plant response rating (0 to 100 scale) (corn (Zea mays)): 0; Corn plant response rating (corn (Zea mays)): 0; Barnyardgrass plant response rating (0 to 100 scale) [14]: 0; Barnyardgrass plant response rating [14]: 0; Ragweed plant response rating (0 to 100 scale) [15]: 50; Ragweed plant response rating [15]: 40; Kochia plant response rating (0 to 100 scale) (kochia (Kochia scoparia) [16]): 30; Kochia plant response rating (kochia (Kochia scoparia) [16]): 10; Ryegrass, Italian plant response rating (0 to 100 scale) [17]: 50; Ryegrass, Italian plant response rating [17]: 30; Galium plant response rating (0 to 100 scale) [18]: 60; Galium plant response rating [18]: 50
CCO/N=C(/c1cccc(C)c1C)c1c(O)c(C)nn(C)c1=O [Compound 24] | 20 | 60 | 20 | 40 | 0 | 10 | 30 | 60 | 0 | 0 | 10 | 50 | 0 | 0 | 0 | 0 | 20 | 0 | 0 | 0 | Blackgrass plant response rating (0 to 100 scale) [12]: 40; Blackgrass plant response rating [12]: 10; Pigweed plant response rating (0 to 100 scale) [13]: 60; Pigweed plant response rating [13]: 30; Corn plant response rating (0 to 100 scale) (corn (Zea mays)): 0; Corn plant response rating (corn (Zea mays)): 0; Barnyardgrass plant response rating (0 to 100 scale) [14]: 30; Barnyardgrass plant response rating [14]: 0; Ragweed plant response rating (0 to 100 scale) [15]: 60; Ragweed plant response rating [15]: 30; Kochia plant response rating (0 to 100 scale) (kochia (Kochia scoparia) [16]): 20; Kochia plant response rating (kochia (Kochia scoparia) [16]): 0; Ryegrass, Italian plant response rating (0 to 100 scale) [17]: 40; Ryegrass, Italian plant response rating [17]: 10; Galium plant response rating (0 to 100 scale) [18]: 60; Galium plant response rating [18]: 50
